Assay [1] concerns the target T1, SARS-CoV-2 PLpro (nsp3 1564–1878) (Severe acute respiratory syndrome coronavirus 2, UniProt P0DTD1). The assay is described as follows: biochemical. The settings on record: read-out: % of control remaining. On the set-up: FRET-quenched peptide (Pro3) cleavage by PLpro, 10 min pre-incubation, slope over 20 min, normalised to no-compound control.
Assay [2] has as its target T1, SARS-CoV-2 PLpro (nsp3 1564–1878). The experiment in a line: biochemical. On the set-up: FRET-quenched peptide (Pro3) cleavage by PLpro, 10 min pre-incubation, slope over 20 min, normalised to no-compound control. As to conditions: read-out: % of control remaining. The source holds these as a separate data set.

The record followed here is paper PMC8286840, “Identifying SARS-CoV-2 antiviral compounds by screening for small molecule inhibitors of Nsp3 papain-like protease” (Biochemical Journal, 2021).

Counter-ions that a name gives are not always drawn. Like-named read-outs stand apart in the source and are kept apart here. Where a SMILES comes first, the peptide text is derived from it. [ ]: non-standard residue; d: D form. The star is where a group is joined. Benzoyl(4-tBu) = CC(C)(C)c1ccc(C(=O)*)cc1; Lys(Et2) = CCN(CC)CCCC[C@H](N)C(=O)O

As for `Cc1cn([C@@H]2O[C@H](CO)[C@@H](N=[N+]=[N-])[C@H]2O)c(=O)nc1N` [3'-Azido-3'-deoxy-5-methylcytidine], in assay [1] (Well no.=7804, low concentration screen), the remaining activity at 1.25 µM stood at 98.2%. Moreover, the remaining activity at 3.75 µM in assay [2] (Well no.=7804, high concentration screen) worked out at 97.5%.
With `C[n+]1cc2c3c(ccc2c2ccc4cc5c(cc4c21)OCO5)OCO3` [Sanguinarine (chloride)], the remaining activity at 1.25 µM in assay [1] (Well no.=6636, low concentration screen) turned out to be 99.4%. The remaining activity at 3.75 µM in assay [2] (Well no.=6636, high concentration screen) was 98.9%.
With `c1ccc(-c2nn3c(c2-c2ccnc4cc(OCCN5CCOCC5)ccc24)CCC3)nc1` [LY2109761], the remaining activity at 1.25 µM in assay [1] (Well no.=4685, low concentration screen) came to 103%. In assay [2] (Well no.=4685, high concentration screen), the remaining activity at 3.75 µM is 103%.
With `C[C@H](N[C@@H](CCc1ccccc1)C(=O)O)C(=O)N1CCC[C@H]1C(=O)O` [Enalaprilat (dihydrate)], the remaining activity at 1.25 µM in assay [1] (Well no.=7842, low concentration screen) came out at 94.7%. Moreover, the remaining activity at 3.75 µM in assay [2] (Well no.=7842, high concentration screen) was 97.1%.
Take `CCN(CC)CCCC[C@H](NC(=O)[C@H](CC(C)C)NC(=O)[C@H](C)NC(=O)[C@H](Cc1ccccc1)NC(=O)c1ccc(C(C)(C)C)cc1)C(=O)N[C@@H](CO)C(=O)OC` [UNC3866] ({Benzoyl(4-tBu)}-FAL[Lys(Et2)]S-OMe): in assay [1] (Well no.=8220, low concentration screen), the remaining activity at 1.25 µM is 101%. For the same compound, in assay [2] (Well no.=8220, high concentration screen), the remaining activity at 3.75 µM turned out to be 103%.
With `C[N+]1(C)C2CC(OC(=O)[C@H](CO)c3ccccc3)CC1C1OC12` (single isomer, unassigned; (-)) [(-)-Scopolamine methyl nitrate], the remaining activity at 1.25 µM in assay [1] (Well no.=1454, low concentration screen) was 93.9%. Moreover, the remaining activity at 3.75 µM in assay [2] (Well no.=1454, high concentration screen) was 96.6%.
On to `O=C(O)Cc1c[nH]c2ccccc12` [Indole-3-acetic acid], for which, in assay [1] (Well no.=3667, low concentration screen), the remaining activity at 1.25 µM was found to be 101%. Besides, in assay [2] (Well no.=3667, high concentration screen), the remaining activity at 3.75 µM was found to be 104%.
Regarding `NC(=O)CN1CCCC1=O` [Piracetam], in assay [1] (Well no.=1100, low concentration screen), the remaining activity at 1.25 µM is 96.7%. Further, the remaining activity at 3.75 µM in assay [2] (Well no.=1100, high concentration screen) stood at 97.5%.
Consider `COC1=CC(=O)O[C@@H](/C=C/c2ccccc2)C1` (racemic), for which the remaining activity at 1.25 µM in assay [1] (Well no.=3371, low concentration screen) came out at 92.9%. For the same compound, the remaining activity at 3.75 µM in assay [2] (Well no.=3371, high concentration screen) amounted to 95.8%.
Consider `CCN1CCC[C@H]1CNC(=O)c1cc(S(N)(=O)=O)ccc1OC` [(S)-(-)-Sulpiride], for which, in assay [1] (Well no.=1636, low concentration screen), the remaining activity at 1.25 µM came out at 98.3%. The remaining activity at 3.75 µM in assay [2] (Well no.=1636, high concentration screen) was 103%.
For the compound `CC(C)C(=O)OCC(=O)[C@@]12O[C@H](C3CCCCC3)O[C@@H]1C[C@H]1[C@@H]3CCC4=CC(=O)C=C[C@]4(C)[C@H]3[C@@H](O)C[C@@]12C` [Ciclesonide], the remaining activity at 1.25 µM in assay [1] (Well no.=7323, low concentration screen) was 95.9%. Also, in assay [2] (Well no.=7323, high concentration screen), the remaining activity at 3.75 µM stood at 97.2%.
Turning to `O=c1c(O)c(-c2ccc(O)c(O)c2)oc2cc(O)c(O)c(O)c12` [Quercetagetin], the remaining activity at 1.25 µM in assay [1] (Well no.=2589, low concentration screen) amounted to 89%. The remaining activity at 3.75 µM in assay [2] (Well no.=2589, high concentration screen) amounted to 92.1%.
On to `CN1C2CCC1CC(NC(=O)c1nn(C)c3ccccc13)C2` (centres unmarked) [LY-278,584 maleate], for which the remaining activity at 1.25 µM in assay [1] amounted to 98.8%. Moreover, in assay [2], the remaining activity at 3.75 µM is 101%.
Take `CNCCc1ccccn1` [Betahistine (dihydrochloride)]: the remaining activity at 1.25 µM in assay [1] (Well no.=6621, low concentration screen) was found to be 98.5%. Further, in assay [2] (Well no.=6621, high concentration screen), the remaining activity at 3.75 µM turned out to be 92.4%.
As for `Oc1nc(-c2ccc(C(F)(F)F)cc2)nc2c1CSCC2` [XAV-939], the remaining activity at 1.25 µM in assay [1] (Well no.=4719, low concentration screen) came to 102%. In addition, the remaining activity at 3.75 µM in assay [2] (Well no.=4719, high concentration screen) was 103%.
Turning to `C[N+]1(CCCCC[N+]2(C)CCCC2)CCCC1` [Pentolinium di[L(+)-tartrate]], the remaining activity at 1.25 µM in assay [1] (Well no.=810, low concentration screen) came to 96.7%. Moreover, the remaining activity at 3.75 µM in assay [2] (Well no.=810, high concentration screen) was found to be 96.3%.
Turning to `COc1cc(C(=O)N(CCCc2ccccc2)Cc2ccc(CC(=O)O)cc2)cc(OC)c1C` [ONO-7300243], in assay [1] (Well no.=7711, low concentration screen), the remaining activity at 1.25 µM was found to be 101%. Moreover, the remaining activity at 3.75 µM in assay [2] (Well no.=7711, high concentration screen) was 103%.
Consider `Fc1ccc(C(OCCN2CCN(CCCc3ccccc3)CC2)c2ccc(F)cc2)cc1` [GBR-12909 dihydrochloride], for which the remaining activity at 1.25 µM in assay [1] (Well no.=590, low concentration screen) worked out at 98.5%. Moreover, the remaining activity at 3.75 µM in assay [2] (Well no.=590, high concentration screen) was determined as 98.5%.
As to `COc1ccc2c(c1)c(CC(=O)OCC(=O)O)c(C)n2C(=O)c1ccc(Cl)cc1` [Acemetacin], in assay [1] (Well no.=2037, low concentration screen), the remaining activity at 1.25 µM came out at 99.2%. The remaining activity at 3.75 µM in assay [2] (Well no.=2037, high concentration screen) was found to be 97.7%.
As for `COc1cc(-c2ccc(=O)[nH]n2)ccc1OC(F)F` [Zardaverine], the remaining activity at 1.25 µM in assay [1] (Well no.=1438, low concentration screen) was 95.5%; in assay [1] (Well no.=2190, low concentration screen), 97.5%. In addition, the remaining activity at 3.75 µM in assay [2] (Well no.=1438, high concentration screen) is 94.9%; in assay [2] (Well no.=2190, high concentration screen), 98.2%.
For `CN1[C@@H]2CC[C@H]1C[C@@H](OC(c1ccccc1)c1ccccc1)C2` [Benztropine mesylate], in assay [1] (Well no.=177, low concentration screen), the remaining activity at 1.25 µM was 104%. Further, the remaining activity at 3.75 µM in assay [2] (Well no.=177, high concentration screen) came out at 104%.
As to `NC[C@@H]1O[C@H](O[C@H]2[C@@H](O)[C@H](O[C@@H]3[C@@H](O)[C@H](N)C[C@H](N)[C@H]3O[C@H]3O[C@H](CN)[C@@H](O)[C@H](O)[C@H]3N)O[C@@H]2CO)[C@H](N)[C@@H](O)[C@@H]1O` [Neomycin], the remaining activity at 1.25 µM was 94.3% in assay [1] (Well no.=1911, low concentration screen) and 87.7% in assay [1] (Well no.=3419, low concentration screen). Besides, the remaining activity at 3.75 µM came out at 94.6% in assay [2] (Well no.=1911, high concentration screen) and 90% in assay [2] (Well no.=3419, high concentration screen).
As to `COc1c(C)cnc(Cn2cnc3c(Cl)nc(N)nc32)c1C` [BIIB021], in assay [1] (Well no.=5091, low concentration screen), the remaining activity at 1.25 µM turned out to be 104%. In assay [2] (Well no.=5091, high concentration screen), the remaining activity at 3.75 µM came to 107%.
As to `CC(C)(CO)Cc1cc(C(C)(C)C)c(O)c(C(C)(C)C)c1` [CGP-7930], in assay [1] (Well no.=43, low concentration screen), the remaining activity at 1.25 µM came to 101%. Moreover, the remaining activity at 3.75 µM in assay [2] (Well no.=43, high concentration screen) turned out to be 102%.
For the compound `CCCCCCCCOC(=O)/C=C/c1ccc(O)c(O)c1` [n-Octyl caffeate], in assay [1] (Well no.=4043, low concentration screen), the remaining activity at 1.25 µM was determined as 93.2%. Further, the remaining activity at 3.75 µM in assay [2] (Well no.=4043, high concentration screen) worked out at 95.8%.
In the case of `CC[C@H](C)C(=O)O[C@H]1C[C@H](O)C=C2C=C[C@H](C)[C@H](CC[C@@H](O)C[C@@H](O)CC(=O)O)[C@H]21` [Pravastatin sodium], the remaining activity at 1.25 µM in assay [1] (Well no.=4889, low concentration screen) stood at 96.4%. In addition, the remaining activity at 3.75 µM in assay [2] (Well no.=4889, high concentration screen) was determined as 96.9%.
For the compound `CN(CCOc1ccc(CC2SC(=O)NC2=O)cc1)c1ccccn1` (centres unmarked) [Rosiglitazone HCl], the remaining activity at 1.25 µM in assay [1] (Well no.=4758, low concentration screen) amounted to 102%. Also, in assay [2] (Well no.=4758, high concentration screen), the remaining activity at 3.75 µM came to 97.3%.
As for `O=C(C[C@H]1NCCC[C@@H]1O)Cn1cnc2cc(Br)c(Cl)cc2c1=O` (racemic) [Halofuginone], the remaining activity at 1.25 µM in assay [1] (Well no.=7360, low concentration screen) turned out to be 103%. Moreover, the remaining activity at 3.75 µM in assay [2] (Well no.=7360, high concentration screen) stood at 95.2%.
As to `CC#C[C@]1(O)CC[C@H]2[C@@H]3CCC4=CC(=O)CCC4=C3[C@@H](c3ccc(N(C)C)cc3)C[C@@]21C` [Mifepristone], the remaining activity at 1.25 µM was 103% in assay [1] (Well no.=795, low concentration screen); 93.5% in assay [1] (Well no.=2206, low concentration screen); 97.9% in assay [1] (Well no.=6285, low concentration screen). The remaining activity at 3.75 µM in assay [2] (Well no.=795, high concentration screen) was 96.3%; in assay [2] (Well no.=2206, high concentration screen), 97.2%; in assay [2] (Well no.=6285, high concentration screen), 99.7%.
For the compound `CCOc1ccc(C(Nc2ccccn2)c2ccc3ccc(C)nc3c2O)cc1C` (centres unmarked) [HLM006474], in assay [1] (Well no.=5926, low concentration screen), the remaining activity at 1.25 µM came out at 104%. The remaining activity at 3.75 µM in assay [2] (Well no.=5926, high concentration screen) amounted to 100%.
